System: Saccharomyces cerevisiae
Assay: Toxic effect of selected bio-oil model compounds on yeast growth (inhibition rate)
Type: cell-based
Set-up: inhibition rate: unit not given here
Conditions: for inhibition of yeast growth, summary in words: summary of Table 4
From the text: The nature and the range of lethal concentrations of many of these toxic compounds was not well known. Thus, we carried out tests with model compounds to identify which of them were toxic to yeasts.
The toxic effects of selected bio-oil compounds (acetic acid, propanoic acid, cyclopentanone, 2-furaldehyde, furfuryl alcohol, phenol, eugenol, acetol, 2-(5H)-furanone, stilbene, vanillin, syringaldehyde, o-cresol) on Saccharomyces cerevisiae were studied.

[1] = compound at 25% of CFBO (concentration found in bio-oils; Mallee fast pyrolysis oil, 500° C.)
[2] = compound at 50% of CFBO (concentration found in bio-oils; Mallee fast pyrolysis oil, 500° C.)
[3] = compound at 75% of CFBO (concentration found in bio-oils; Mallee fast pyrolysis oil, 500° C.)
[4] = compound at 100% of CFBO (concentration found in bio-oils; Mallee fast pyrolysis oil, 500° C.)

SMILES	inhibition of yeast growth, summary in words	further results
OCc1ccco1 [Furfuryl alcohol]	also inhibitors but their inhibition rate is much lower	
CCCCCCCCCCCCCCC [Petadecane]	also inhibitors but their inhibition rate is much lower	
O=Cc1ccco1 [2-furaldehyde]	also inhibitors but their inhibition rate is much lower	
CCCCCCCCCCCCCC [Tetradecane]	also inhibitors but their inhibition rate is much lower	
Oc1ccccc1 [Phenol]	most lethal compounds inhibiting yeast growth	
CC(=O)CO [Acetol]		inhibition rate [1]: 44.17; inhibition rate [2]: 77.80; inhibition rate [3]: 78.93; inhibition rate [4]: 80.07
C=CCc1ccc(O)c(OC)c1 [Eugenol]	most lethal compounds inhibiting yeast growth	
O=C1C=CCO1 [2-(5H)-Furanone]	also inhibitors but their inhibition rate is much lower	
Oc1ccccc1O [Pyrocatechol]	most lethal compounds inhibiting yeast growth	
Cc1ccccc1O [O-cresol]		inhibition rate [1]: 2.61; inhibition rate [2]: 14.16; inhibition rate [3]: 23.38; inhibition rate [4]: 31.22
COc1cc(C=O)cc(OC)c1O [Syringaldehyde]	most lethal compounds inhibiting yeast growth	
COc1cc(C=O)ccc1O [Vanillin]	most lethal compounds inhibiting yeast growth	
CCC(=O)O [Propanoic acid]	most lethal compounds inhibiting yeast growth	
CC(=O)O [Acetic acid]	most lethal compounds inhibiting yeast growth	
Cc1ccccc1C [O-xylol]		inhibition rate [1]: 5.01; inhibition rate [2]: 5.23; inhibition rate [3]: 5.33; inhibition rate [4]: 5.44
